Results taken from patent US6410790B1, “3-amin3-arylpropan-1-ol compounds, their preparation and use” (priority 1999, dated 2002).

Tests used:
[1] = test system: phenylquinone-induced writhing reaction; assay: phenylquinone-induced writhing test in mice; type: in vivo; conditions: male NMRI mice, phenylquinone i.p. 10 minutes later; for inhibition in vivo at 10 mg/kg: Mus musculus, iv, 10 min, 10 mg/kg intravenously
In short: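 Male NMRI mice (25–30 g, n=10/group) received test substance i.v. at 10 mg/kg, then 0.02% phenylquinone i.p. 10 min later. Writhing reactions were counted 5–20 min after phenylquinone; % inhibition is relative to saline-treated controls.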

NA transporter = biological target: T1, NA transporter (Rattus norvegicus, UniProt Q63380); assay: synaptosomal noradrenaline uptake inhibition (NA uptake inhibition); type: biochemical; conditions: for NA Uptake Inhibition at 1 μM: 1 μM in the assay, synaptosomes from rat hypothalamus; for inhibition at 1 µM: read-out: NA Uptake Inhibition at 1 μM, 1 μM in the assay, synaptosomes from rat hypothalamus
T1 construct: synaptosomes are isolated fresh from rat brains; from tissue; host or cells: rat hypothalamus synaptosomes (P2 fraction)
T1 sequence (Q63380 1-617): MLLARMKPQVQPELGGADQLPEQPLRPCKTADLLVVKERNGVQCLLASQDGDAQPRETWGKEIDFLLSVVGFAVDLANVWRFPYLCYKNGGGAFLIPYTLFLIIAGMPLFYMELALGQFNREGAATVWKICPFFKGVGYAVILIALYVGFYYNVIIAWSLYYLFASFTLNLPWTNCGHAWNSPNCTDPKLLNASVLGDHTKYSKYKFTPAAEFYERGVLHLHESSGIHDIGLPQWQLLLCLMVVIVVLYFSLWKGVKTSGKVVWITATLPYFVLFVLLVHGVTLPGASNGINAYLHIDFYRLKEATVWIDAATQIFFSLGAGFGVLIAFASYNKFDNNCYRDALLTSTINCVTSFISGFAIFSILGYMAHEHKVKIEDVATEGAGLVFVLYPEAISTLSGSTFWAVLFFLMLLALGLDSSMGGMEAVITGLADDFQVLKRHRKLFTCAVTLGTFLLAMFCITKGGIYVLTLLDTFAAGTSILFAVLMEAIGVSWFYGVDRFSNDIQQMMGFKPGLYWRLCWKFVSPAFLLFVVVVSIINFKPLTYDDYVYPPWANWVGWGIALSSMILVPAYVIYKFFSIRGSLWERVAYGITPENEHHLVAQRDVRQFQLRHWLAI
In short: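 IC50 values converted to Ki via Cheng-Prusoff; Km by Lineweaver-Burk. N=4 independent series, each in triplicate, mean ± SEM.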

[2] = test system: phenylalkylamine binding site of the L-type calcium channel; assay: Verapamil binding, L calcium channel; conditions: for Verapamil Binding at 10 μM: percentage inhibition, N-methyl-[3H]-verapamil 2 nM
Method: Binding Investigations in the L Calcium Channel
Phenylalkylamine Binding Site (Verapamil Binding)
The biological material (ion channel particles) was prepared on the basis of the publication of Reynolds, Gould and Snyder (I. J. Reynolds, R. J. Gould and S. H. Snyder (1983) […]. 95, 319-321).
N-methyl-[^3H]-verapamil (2 nM in the assay) was used as radioligand. The radioactivity that is measured in the presence of non-radioactive verapamil (10^−4 M in the assay) is defined as non-specific binding. The material was incubated at 25° C. for 45 minutes. The material was then filtered using a Whatman GF/B filter, followed by washing. The radioactivity remaining on the filter (ion channel binding) was measured using a β-counter.
For this purpose IC50 values are obtained, which can be converted to inhibitor constants (Ki) according to the “Cheng-Prusoff equation” (Y. C. Clieng and W. H. Prusoff (1973) Biochem. Pharmacol. 22, 3099-3108). The IC50 values were obtained by means of the computer program “Figure P” (version 6.0, Biosoft, Cambridge, England). Km values were calculated according to Lineweaver and Burk (H. Lineweaver and D. Burk (1934) J. Am. Chem. Soc. 56, 658-666). The “Ligand” computer program (version 4, Biosoft, England) was used to obtain Ken values.

[3] = test system: benzothiazepine binding site of the L-type calcium channel; assay: Diltiazem binding, L calcium channel; set-up: species or system rat; conditions: 10 μM, percentage inhibition, [3H]-cis-(+)-diltiazem 5 nM, rat cerebral cortex membranes
In short: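 Rat cerebral cortex membranes incubated with [^3H]-cis-(+)-diltiazem (5 nM) for 20 min at 25° C; nonspecific binding defined with (±)-diltiazem (10^−6 M). Bound ligand collected by GF/B filtration and counted; IC50 values converted to Ki by Cheng-Prusoff.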

[4] = test system: binding site 2 of the sodium channel; assay: BTX binding, sodium channel; conditions: 10 μM, percentage inhibition, [3H]-batrachotoxin A20 α-benzoate 10 nM, rat cerebral cortex synaptosomes
In short: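 Rat cerebral cortex synaptosomes incubated with 10 nM [^3H]-batrachotoxin A20 α-benzoate at 37° C for 120 min; non-specific binding defined with 0.3 mM veratridine. IC50 values converted to Ki via Cheng-Prusoff; means±SEM of 3 independent series run in triplicate.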

Row | SMILES | % Inhibition of the writhing reaction at 10 mg/kg intravenously [1] | NA Uptake Inhibition at 1 μM (NA transporter) | Verapamil Binding at 10 μM [2] | Diltiazem Binding at 10 μM [3] | BTX Binding at 10 μM [4] | % Inhibition of the writhing reaction at 10 mg/kg intravenously ([1]; hydrochloride, 10 mg/kg) | NA Uptake Inhibition at 1 μM (NA transporter; hydrochloride) | Verapamil Binding at 10 μM ([2]; hydrochloride) | BTX Binding at 10 μM ([4]; hydrochloride) | inhibition in vivo at 10 mg/kg [1] | inhibition at 1 µM (NA transporter) | Kd ([2]; radioligand, N=2, read-out: KD value for this binding site)
1 | CN(C)C(c1ccccc1)C1CCCCC1(O)c1cccc(O)c1.Cl (stereo not shown) [Example 4] | 75% | 49% | 57% | 46% | 70% | – | – | – | – | – | – | –
2 | COc1cccc(C2(O)CCCCC2C(c2ccccc2)N(C)C)c1.Cl (stereo not shown) [Example 1, 2-(dimethlylaminophenylmethyl)-1-(3-methoxyphenyl)cyclohexanol, hydrochloride] | 85% | 41% | 76% | 65% | 77% | – | – | – | – | – | – | –
3 | CN(C)C(c1ccccc1)C1CCCCC1(O)c1ccc(Cl)c(Cl)c1.Cl (single isomer, unassigned; (-)) [−19, (−)-1(3,4-dichlorophenyl)-2-(dimethylaminophenylmethyl)cyclohexanol, hydrochloride] | – | – | – | 85% | – | 88% | 36% | 83% | 96% | – | – | –
4 | CN(C)C(c1ccccc1)C1CCCCC1(O)c1cccc(F)c1.Cl (stereo not shown) [Example 2, 2-(dimethylaminophenylmethyl)-1-(3-fluorophenyl)cyclohexaniol, hydrochloride] | 88% | 52% | 76% | 52% | 80% | – | – | – | – | – | – | –
5 | CN(C)c1ccc(C2(O)CCCCC2C(c2ccccc2)N(C)C)cc1.Cl (stereo not shown) [Example 10, 1-(4-dimethylaminophenyl)-2-[dimethylaminophenylmethyl]cyclohexanol, hydrochloride] | – | – | 61% | 69% | 88% | – | – | – | – | 97% | 48% | –
6 | CN(C)C(c1ccccc1)C1CCCCC1(O)Cc1ccc(OC(F)(F)F)cc1.Cl (stereo not shown) [Example 16, 2-(dimethylaminophenylmethyl)-1-(4-trifluoromethoxybenzyl)cyclohexanol, hydrochloride] | – | – | 91% | 100% | 98% | – | – | – | – | 75% | 89% | –
7 | CN(C)C(c1ccccc1)C1CCCCC1(O)c1ccc(Cl)c(Cl)c1 (stereo not shown) [Example 19, 1-(3,4-dichlorophenyl)-2-(dimethylaminophenylmethyl)-cyclohexanol] | – | 50% | 81% | – | 97% | – | – | – | – | – | – | –
8 | COc1ccc(C2(O)CCCCC2C(c2ccccc2)N(C)C)cc1.Cl (stereo not shown) [Example 5, 2-(dimethylaminophenylmethyl)-1-(4-methoxyphenyl)cyclohexanol, hydrochloride] | – | – | 56% | 54% | 97% | – | – | – | – | 100% | 70% | –
9 | CN(C)C(c1ccccc1)C1CCCCC1(O)c1ccc(Cl)c(Cl)c1.Cl (single isomer, unassigned; (+)) [+19, (+)-1-(3,4-dichlorophenyl)-2-(dimethylaminophenylmethyl)cyclohexanol, hydrochloride] | – | – | – | 85% | – | – | 62% | 82% | 92% | 74% | – | –
10 | CCCCC1(O)CCCCC1C(c1ccccc1)N(C)C.Cl (stereo not shown) [Example 18, 1-butyl-2-(dimethylaminophenylmethyl)cyclohexanol, hydrochloride] | – | – | 75% | 81% | 95% | – | – | – | – | 100% | 84% | –
11 | CN(C)C(c1ccccc1)C1CCCCC1(O)c1ccc(F)cc1.Cl (stereo not shown) [Example 7, 2-(dimethylaminophenylmethyl)-1-(4-fluorophenyl)cyclohexanol, hydrochloride] | – | – | 56% | 78% | 86% | – | – | – | – | 85% | 38% | –
12 | CN(C)C(c1ccccc1)C1CCCCC1(O)c1cccc2c1OCO2.Cl (stereo not shown) [Example 11, 1-benzo[1,3]dioxol-4-yl-2-(dimethylaminophenylmethyl)cyclohexanol, hydrochloride] | – | – | 61% | 85% | 79% | – | – | – | – | 99% | 54% | –
13 | CN(C)C(c1ccccc1)C1CCCCC1(O)c1ccc(Cl)cc1.Cl (stereo not shown) [Example 6, 1-(4-chlorophenyl)-2-(dimethylaminophenylmethyl)cyclohexanol, hydrochloride] | – | – | 60% | 96% | 90% | – | – | – | – | 83% | 51% | –
14 | CN(C)C(c1ccccc1)C1CCCCC1(O)c1ccccc1.Cl (stereo not shown) [Example 3, 2-(dimethylaminophenylmethyl)-1-phenylcyclohexanol, hydrochloride] | – | – | 68% | 50% | 78% | – | – | – | – | 83% | 41% | –
15 | CN(C)C(c1ccccc1)C1CCCCC1(O)c1ccoc1.Cl (stereo not shown) [Example 17, 2-(dimethylaminophenylmethyl)-1-furan-3-ylcyclohexanol, hydrochloride] | – | – | 72% | 54% | 70% | – | – | – | – | 100% | 57% | –
16 | COc1ccc(CCN(C)CCCC(C#N)(c2ccc(OC)c(OC)c2)C(C)C)cc1OC (stereo not shown) [N-methyl-[^3H]-verapamil, reference compound] | – | – | – | – | – | – | – | – | – | – | – | 0.139 µM
17 | Cl.OC1(Cc2ccccc2)CCCCC1C(c1ccccc1)N1CCCCC1 (stereo not shown) [Example 78, 1-benzyl-2-(phenylpiperidin-1-ylmethyl)cyclohexanol, hydrochloride] | – | – | – | 95% | 96% | – | – | – | – | 73% | 84% | –
18 | CN(C)C(c1ccccc1)C1CCCCC1(O)Cc1cccc(Cl)c1.Cl (stereo not shown) [Example 32, 1-(3-chlorobenzyl)-2-(dimethylaminophenylmethyl)cyclohexanol, hydrochloride] | – | – | – | 98% | 94% | – | – | – | – | 100% | 100% | –
